The text below walks through data of publication PMC11050599, “Novel Tetracyclic Azaphenothiazines with the Quinoline Ring as New Anticancer and Antibacterial Derivatives of Chlorpromazine” (International Journal of Molecular Sciences, 2024).

Broadly, the MIC is the smallest concentration in the dilution series that meets the test's criterion for growth inhibition. In general, IC50 refers to the concentration that gives 50% inhibition.

Assay [1] relates to standard bacterial strains. The assay can be described thus: MIC, summary over standard bacterial strains. In kind it is cell-based. Conditions: Staphylococcus aureus, ATCC 29213, 25923, and 6538; S. aureus strains other than NCTC 4163; read-out: MIC against the other three strains of S. aureus. From the text:
To evaluate the antibacterial effectiveness of chloroquinobenzothiazine derivatives, various bacterial strains from international microbe collections such as the American Type Culture Collection (ATCC) and the National Collection of Type Culture (NCTC) were examined, alongside a panel of clinical rods. This included two Gram-negative organisms, E. coli ATCC 25922 and P. aeruginosa ATCC 15442, and a series of six Gram-positive strains: S. aureus NCTC 4163; S. aureus ATCC 29213, 25923, and 6538; and S. epidermidis ATCC 12228 and 35984. The antimicrobial activity was examined using the Minimal Inhibitory Concentration (MIC) method, following standard CLSI procedures with slight adjustments. The MIC was determined using the two-fold serial broth microdilution method in 96-well microtitration plates containing Mueller-Hinton II broth medium (Becton Dickinson, Franklin Lakes, NJ, USA). The final inoculum for all tested bacteria was adjusted to […] (colony-forming units per milliliter). The stock solution of the tested compounds was prepared in dimethyl sulfoxide (DMSO) and diluted to a maximum of 1% solvent content with a sterile medium.

Assay [2] has as its system MDA-MB-231 (breast cancer). As to the kind of experiment: MTT assay, MDA-MB-231 cells. Format: cell-based, human. The method, boiled down: (§1)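 Test compounds are added to plated cells (1 × 10^4 per well) for 72 h. Cell viability is calculated as the percentage of MTT reduction compared with cells given medium alone.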
The subject of assay [3] is HCT116 cells. The assay can be described thus: Annexin V-FITC/PI apoptosis flow cytometry, HCT116. Format: cell-based, human.
In assay [4] the test system is MiaPaCa-2 (pancreas cancer). As to the kind of experiment: MTT assay, MiaPaCa-2 cells. In kind it is cell-based, human. The method, boiled down:
as §1

[5] abbreviates: SI = IC50 for normal cell line (HaCaT)/IC50 cancer cell line.
Where [6] appears, read: representative dot plot, Figure 4C, IC50, 72 h.

Take `CN1CCCCC1CCN1c2cc(Cl)ccc2Sc2cc3ccccc3nc21` (stereo not shown) [Compound 11, 8-Chloro-6-(2-(1-methylpiperidin-2-yl)ethyl)-quino[3,2-b]benzo[1,4]thiazine]: the MIC in assay [1] was more than 128 µg/mL. Also, in assay [2] (Homo sapiens, MDA-MB-231, MTT, 72 h, MDA-MB231, read-out: IC50 MDA), the IC50 amounted to 16.7 ± 1.1 µM. In addition, the “SI MDA” value in assay [2] (setting [5]) is 0.9. Further, the “cells in late apoptosis/necrosis, HCT116” value in assay [3] (compound at IC50, 72 h) stood at 15.64%. Also, in assay [3] (setting [6]), the “HCT-116: Alive” value was found to be 80.61%, the “HCT-116: Early Apoptotic” value is 4.12%, the “HCT-116: Necrotic” value is listed as 9.25% and the “HCT-116: Necrotic/Late Apoptotic” value was 6.03%. Also, the IC50 in assay [4] (Homo sapiens, MIA PaCa-2, MTT, 72 h, read-out: IC50 MiaPaCa-2) was 24.3 ± 3.5 µM. In addition, the “SI MiaPaCa-2” value in assay [4] (setting [5]) is 0.5.
